Test results reported in ChEMBL document CHEMBL1126445, “Acetylcholine-releasing agents as cognition enhancers. Structure-activity relationships of pyridinyl pendant groups on selected core structures” (1992).

species on record: Rattus norvegicus; assay: Compound was evaluated for its ability to enhance the release of acetylcholine in vitro by using [3H]choline in rat brain slice superfusion system; assay type: functional

Going from `O=C1CCc2ccccc2C1(Cc1ccncc1)Cc1ccncc1` to `O=C1CCc2ccccc2C1(Cc1cccnc1)Cc1cccnc1`, the Release falls from 36% to 11%.

Going from `O=C1c2cccc3cccc(c23)C1(Cc1ccccn1)Cc1ccccn1` to `C=C1c2cccc3cccc(c23)C1(Cc1ccccn1)Cc1ccccn1`, the Release falls from 40% to 25%.

Going from `C=C1c2cccc3cccc(c23)C1(Cc1cccnc1)Cc1cccnc1` to `O=C1c2cccc3cccc(c23)C1(Cc1cccnc1)Cc1cccnc1`, the Release falls from 21% to 7%.

Compared with `c1ccc(CC2(Cc3ccccn3)c3ccccc3Sc3ccccc32)nc1`, `c1ccc(CC2(Cc3ccccn3)c3ccccc3Oc3ccccc32)nc1` is lower in Release: 47% for the first, 24% for the second.

Going from `c1ccc2c(c1)Oc1ccccc1C2(Cc1ccncc1)Cc1ccncc1` to `c1ccc2c(c1)Sc1ccccc1C2(Cc1ccncc1)Cc1ccncc1`, the Release falls from 91% to 42%.

Going from `O=C1N(c2ccccc2)c2ccccc2C1(Cc1ccccn1)Cc1ccccn1` to `O=C1N(c2ccccc2)c2ccccc2C1(Cc1cccnc1)Cc1cccnc1`, the Release rises from 22% to 38%.

Compared with `O=C1CCc2ccccc2C1(Cc1ccccn1)Cc1ccccn1`, `OC1c2cccc3cccc(c23)C1(Cc1ccccn1)Cc1ccccn1` (stereo unspecified) is higher in Release: 25% for the first, 53% for the second.

First: OC1c2cccc3cccc(c23)C1(Cc1ccncc1)Cc1ccncc1 (stereo unspecified)
Second: C=C1c2cccc3cccc(c23)C1(Cc1ccncc1)Cc1ccncc1
The Release of the first is lower: 15% for the first, 97% for the second.

Compared with `c1cncc(CC2(Cc3cccnc3)c3ccccc3Sc3ccccc32)c1`, `c1cncc(CC2(Cc3cccnc3)c3ccccc3Oc3ccccc32)c1` is lower in Release: 79% for the first, 59% for the second.

First: O=C1N(c2ccccc2)c2ccccc2C1(Cc1ccncc1)Cc1ccncc1 [LINOPIRDINE]
Second: O=C1c2cccc3cccc(c23)C1(Cc1ccncc1)Cc1ccncc1
The Release of the first is higher: 100% for the first, 70% for the second.

With `OC1c2cccc3cccc(c23)C1(Cc1cccnc1)Cc1cccnc1` (stereo unspecified) the Release was 29%.
